Measured values published in the supplement of paper PMC10307832.

Legend:
Assay in all cases: relative viability (nuclei count vs DMSO), 5 days (fraction); higher = more cells survive
201T = test system: 201T
Method in brief: (§1)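 Dosing by pin tool came one day after lung cancer cell lines were seeded in 1536-well plates, using either one drug or a fixed anchor-drug dose plus five library-drug doses (not always all listed) in √10 steps. After 5 days, nuclei were counted on 4× images. Relative viability is treated-well nuclei count divided by vehicle-well nuclei count, and values are medians of duplicate plates.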

ABC-1 = test system: ABC-1
Method in brief: as §1

CAL-12T = test system: CAL-12T
Method in brief: as §1

COR-L23 = test system: COR-L23
Method in brief: as §1

HCC-44 = test system: HCC-44
Method in brief: as §1

HOP-62 = test system: HOP-62
Method in brief: as §1

LC-2-ad = test system: LC-2-ad
Method in brief: as §1

LCLC-103H = test system: LCLC-103H
Method in brief: as §1

NCI-H1355 = test system: NCI-H1355
Method in brief: as §1

NCI-H1395 = test system: NCI-H1395
Method in brief: as §1

NCI-H1651 = test system: NCI-H1651
Method in brief: as §1

NCI-H1666 = test system: NCI-H1666
Method in brief: as §1

NCI-H1993 = test system: NCI-H1993
Method in brief: as §1

NCI-H2085 = test system: NCI-H2085
Method in brief: as §1

NCI-H2170 = test system: NCI-H2170
Method in brief: as §1

NCI-H2228 = test system: NCI-H2228
Method in brief: as §1

NCI-H2347 = test system: NCI-H2347
Method in brief: as §1

NCI-H23 = test system: NCI-H23
Method in brief: as §1

NCI-H322M = test system: NCI-H322M
Method in brief: as §1

NCI-H520 = test system: NCI-H520
Method in brief: as §1

NCI-H647 = test system: NCI-H647
Method in brief: as §1

NCI-H661 = test system: NCI-H661
Method in brief: as §1

NCI-H838 = test system: NCI-H838
Method in brief: as §1

`O=c1[nH]c2ccccc2n1C1CCN(CCCC(c2ccc(F)cc2)c2ccc(F)cc2)CC1` [Pimozide] + CCNC(=O)c1noc(-c2cc(C(C)C)c(O)cc2O)c1-c1ccc(CN2CCOCC2)cc1 [Luminespib] (partner 0.01 µM) showed a relative viability (201T; first compound 0.08 µM) of 1.05, a relative viability (201T; first compound 0.253 µM) of 1.02 and a relative viability (201T; first compound 0.8 µM) of 0.971. For the same compound, the relative viability (201T; first compound 2.53 µM) was 0.961, the relative viability (201T; first compound 8 µM) was 0.912 and the relative viability (ABC-1; first compound 0.08 µM) was 0.75. For the same compound, the relative viability (ABC-1; first compound 0.253 µM) was 0.519, the relative viability (ABC-1; first compound 0.8 µM) was 0.367 and the relative viability (ABC-1; first compound 2.53 µM) was 0.675. For the same compound, the relative viability (ABC-1; first compound 8 µM) was 0.433, the relative viability (CAL-12T; first compound 0.08 µM) was 0.305 and the relative viability (CAL-12T; first compound 0.253 µM) was 0.408. It also gave a relative viability (CAL-12T; first compound 0.8 µM) of 0.186, a relative viability (CAL-12T; first compound 2.53 µM) of 0.514 and a relative viability (CAL-12T; first compound 8 µM) of 0.168. The relative viability (COR-L23; first compound 0.08 µM) was 0.603, the relative viability (COR-L23; first compound 0.253 µM) was 0.628 and the relative viability (COR-L23; first compound 0.8 µM) was 0.594. The relative viability (COR-L23; first compound 2.53 µM) was 0.61, the relative viability (COR-L23; first compound 8 µM) was 0.707 and the relative viability (HCC-44; first compound 0.08 µM) was 1.17. The relative viability (HCC-44; first compound 0.253 µM) was 1.02, the relative viability (HCC-44; first compound 0.8 µM) was 0.953 and the relative viability (HCC-44; first compound 2.53 µM) was 0.994. The relative viability (HCC-44; first compound 8 µM) was 1.01, the relative viability (HOP-62; first compound 0.08 µM) was 0.995 and the relative viability (HOP-62; first compound 0.253 µM) was 0.875. The relative viability (HOP-62; first compound 0.8 µM) was 0.709, the relative viability (HOP-62; first compound 2.53 µM) was 0.904 and the relative viability (HOP-62; first compound 8 µM) was 0.873. The relative viability (LC-2-ad; first compound 0.08 µM) was 1.1, the relative viability (LC-2-ad; first compound 0.253 µM) was 0.969 and the relative viability (LC-2-ad; first compound 0.8 µM) was 0.935. The relative viability (LC-2-ad; first compound 2.53 µM) was 0.985, the relative viability (LC-2-ad; first compound 8 µM) was 0.993 and the relative viability (LCLC-103H; first compound 0.08 µM) was 0.942. It also gave a relative viability (LCLC-103H; first compound 0.253 µM) of 1.01, a relative viability (LCLC-103H; first compound 0.8 µM) of 0.762 and a relative viability (LCLC-103H; first compound 2.53 µM) of 0.899. It also gave a relative viability (LCLC-103H; first compound 8 µM) of 0.948, a relative viability (NCI-H1355; first compound 0.08 µM) of 0.728 and a relative viability (NCI-H1355; first compound 0.253 µM) of 0.63. The relative viability (NCI-H1355; first compound 0.8 µM) was 0.633, the relative viability (NCI-H1355; first compound 2.53 µM) was 0.557 and the relative viability (NCI-H1355; first compound 8 µM) was 0.642. For the same compound, the relative viability (NCI-H1395; first compound 0.08 µM) was 0.846, the relative viability (NCI-H1395; first compound 0.253 µM) was 0.595 and the relative viability (NCI-H1395; first compound 0.8 µM) was 0.704. It also gave a relative viability (NCI-H1395; first compound 2.53 µM) of 0.927, a relative viability (NCI-H1395; first compound 8 µM) of 0.683 and a relative viability (NCI-H1651; first compound 0.08 µM) of 0.91. It also gave a relative viability (NCI-H1651; first compound 0.253 µM) of 0.756, a relative viability (NCI-H1651; first compound 0.8 µM) of 0.696 and a relative viability (NCI-H1651; first compound 2.53 µM) of 0.867. For the same compound, the relative viability (NCI-H1651; first compound 8 µM) was 0.807, the relative viability (NCI-H1666; first compound 0.08 µM) was 0.922 and the relative viability (NCI-H1666; first compound 0.253 µM) was 1.03. For the same compound, the relative viability (NCI-H1666; first compound 0.8 µM) was 0.979, the relative viability (NCI-H1666; first compound 2.53 µM) was 0.942 and the relative viability (NCI-H1666; first compound 8 µM) was 0.932. It also gave a relative viability (NCI-H1993; first compound 0.08 µM) of 0.729, a relative viability (NCI-H1993; first compound 0.253 µM) of 0.809 and a relative viability (NCI-H1993; first compound 0.8 µM) of 0.77. For the same compound, the relative viability (NCI-H1993; first compound 2.53 µM) was 0.79, the relative viability (NCI-H1993; first compound 8 µM) was 0.425 and the relative viability (NCI-H2085; first compound 0.08 µM) was 0.515. The relative viability (NCI-H2085; first compound 0.253 µM) was 0.485, the relative viability (NCI-H2085; first compound 0.8 µM) was 0.4 and the relative viability (NCI-H2085; first compound 2.53 µM) was 0.496. The relative viability (NCI-H2085; first compound 8 µM) was 0.322, the relative viability (NCI-H2170; first compound 0.08 µM) was 0.527 and the relative viability (NCI-H2170; first compound 0.253 µM) was 0.73. The relative viability (NCI-H2170; first compound 0.8 µM) was 0.779, the relative viability (NCI-H2170; first compound 2.53 µM) was 0.624 and the relative viability (NCI-H2170; first compound 8 µM) was 0.671. For the same compound, the relative viability (NCI-H2228; first compound 0.08 µM) was 0.116, the relative viability (NCI-H2228; first compound 0.253 µM) was 0.149 and the relative viability (NCI-H2228; first compound 0.8 µM) was 0.152. The relative viability (NCI-H2228; first compound 2.53 µM) was 0.18, the relative viability (NCI-H2228; first compound 8 µM) was 0.122 and the relative viability (NCI-H2347; first compound 0.253 µM) was 0.3. It also gave a relative viability (NCI-H2347; first compound 0.8 µM) of 0.374, a relative viability (NCI-H2347; first compound 2.53 µM) of 0.582 and a relative viability (NCI-H2347; first compound 8 µM) of 0.266. It also gave a relative viability (NCI-H23; first compound 0.08 µM) of 0.236, a relative viability (NCI-H23; first compound 0.8 µM) of 0.241 and a relative viability (NCI-H23; first compound 2.53 µM) of 0.195. It also gave a relative viability (NCI-H23; first compound 8 µM) of 0.218, a relative viability (NCI-H322M; first compound 0.253 µM) of 0.899 and a relative viability (NCI-H322M; first compound 0.8 µM) of 0.858. The relative viability (NCI-H322M; first compound 2.53 µM) was 0.942, the relative viability (NCI-H322M; first compound 8 µM) was 0.743 and the relative viability (NCI-H520; first compound 0.08 µM) was 0.227. It also gave a relative viability (NCI-H520; first compound 0.253 µM) of 0.219, a relative viability (NCI-H520; first compound 0.8 µM) of 0.194 and a relative viability (NCI-H520; first compound 2.53 µM) of 0.227. The relative viability (NCI-H520; first compound 8 µM) was 0.219, the relative viability (NCI-H647; first compound 0.08 µM) was 0.095 and the relative viability (NCI-H647; first compound 0.253 µM) was 0.0882. The relative viability (NCI-H647; first compound 0.8 µM) was 0.196, the relative viability (NCI-H647; first compound 2.53 µM) was 0.096 and the relative viability (NCI-H647; first compound 8 µM) was 0.109. For the same compound, the relative viability (NCI-H661; first compound 0.08 µM) was 0.929, the relative viability (NCI-H661; first compound 0.253 µM) was 0.879 and the relative viability (NCI-H661; first compound 0.8 µM) was 0.887. It also gave a relative viability (NCI-H661; first compound 2.53 µM) of 0.878, a relative viability (NCI-H661; first compound 8 µM) of 0.896 and a relative viability (NCI-H838; first compound 0.08 µM) of 0.263. The relative viability (NCI-H838; first compound 0.253 µM) was 0.379, the relative viability (NCI-H838; first compound 0.8 µM) was 0.309 and the relative viability (NCI-H838; first compound 2.53 µM) was 0.296. For the same compound, the relative viability (NCI-H838; first compound 8 µM) was 0.244.
